How the values were obtained:
mouse calvaria = conditions: in vitro organ culture; cited from earlier work
[1] = tested on: fetal rat calvaria (osteoblast) cells; conditions: in vitro; cited from earlier work
closed femur fracture = experiment: Closed femur fracture healing in rats treated with 5-LO inhibitors (radiographs, torsional mechanical testing); format: in vivo, Sprague-Dawley rats; conditions: for fracture bridging / healing on radiographs: Example 4, FIG. 8, NDGA 30 mg/kg or AA-861 5 mg/kg twice daily until day 21, 3 weeks of healing; for greater peak torque than vehicle treated rats: Example 4, FIG. 8D, torsional mechanical testing after 5 weeks of healing, NDGA 30 mg/kg, AA-861 5 mg/kg; for mode of femur failure in torsional mechanical testing: Example 4, after 5 weeks of healing
Procedure: Sprague-Dawley rats (3 months old) underwent a standard closed femur fracture procedure as described in the art [Simon et al., Cyclo-oxygenase 2 function is essential for bone fracture healing. Journal of Bone and Mineral Research, 17: 963-976 (2002); Bonnarens and Einhorn, Production of a standard closed fracture in laboratory animal bone. Journal of Orthopaedic Research, 2: 97-101 (1984)]. The impending fracture was stabilized with an intramedullary stainless steel pin. Beginning 4 hours after fracture the rats were treated with 30 mg/kg of NDGA (nordihydrogaiaretic acid) in 1% methylcellulose (5-lipoxygenase inhibitor treatment group) or with carrier only (1% methylcellulose). The day after surgery and continuing until day 14 post-fracture, experimental rats were treated with 2 doses of NDGA (30 mg/kg), the first dose between […] and then again with another NDGA dose 8-10 hours later. Control rats were treated similarly but with carrier only (1% methylcellulose). Three weeks after fracture, the rats were sacrificed, the fractured femurs were harvested, and high resolution radiographs were made of the fractured femurs using a Packard Faxitron and Kodak MinR2000 mammography film. Two representative radiographs are shown in FIG. 7 for each treatment group: control and 5-lipoxygenase (5-LO) inhibitor treated.
Sprague-Dawley rats (3 months old) underwent a standard closed femur fracture procedure as described in the art (Simon et al., Cyclo-oxygenase 2 function is essential for bone fracture healing. Journal of Bone and Mineral Research, 17: 963-976 (2002); Bonnarens and Einhorn, Production of a standard closed fracture in laboratory animal bone. Journal of Orthopaedic Research, 2: 97-101 (1984)]. The impending fracture was stabilized with an intramedullary stainless steel pin. Beginning 4 hours after fracture the rats were treated with vehicle (1% methylcellulose) or inhibitors of 5-LO suspended in 1% methylcellulose. Inhibitor A (NDGA) was administered at 30 mg/kg and Inhibitor B (AA-861) was administered at 5 mg/kg. The day after surgery and continuing until day 21 post-fracture, experimental rats were treated with 2 doses of inhibitor (either A or B), the first dose between 8-10 AM and then again with another dose 8-10 hours later. Control rats were treated similarly but with carrier only (1% methylcellulose). Three weeks after fracture the rats were anesthetized and high resolution radiographs were made of the fractured femurs using a Packard Faxitron and Kodak MinR2000 mammography film (FIGS. 8A, 8B, and 8C). Five weeks after fracture the rats were sacrificed, femurs resected, and assayed for structural mechanical properties by torsional mechanical testing (FIG. 8D).

Saos-2 cells = conditions: in vitro; LTB4 at higher concentration (0.3-1 micromolar); cited from earlier work
[2] = tested on: 8 mm diaphyseal segmental defect in the right femur; experiment: Femur segmental defect repaired with scaffold impregnated with calcium sulfate containing a leukotriene pathway modifier; format: in vivo, Sprague-Dawley rats; conditions: after 3 weeks of healing; local application in calcium sulfate, 1-5% w/w; FIG. 16
Source text: Male Sprague-Dawley rats underwent surgery during which an 8 mm diaphyseal, segmental defect in the right femur was made as described by Rai et al. [Combination of platelet-rich plasma with polycaprolactone-tricalcium phosphate scaffolds for segmental bone defect repair. Journal of Biomedical Materials Research […]:888-899 (2007)]. The defect was repaired with a polycaprolactone-tricalcium phosphate scaffold (8 mm long×3 mm diameter; Osteopore International, Singapore) or the scaffold impregnated with calcium sulfate containing a leukotriene pathway modifier. […] Journal of Medicinal Chemistry 43:721-735 (2000)]; and LY-255283 (1% w/w), a potent and specific leukotriene B4 receptor antagonist [Herron et al. Leukotriene B4 receptor antagonists: the LY255283 series of hydroxyacetophenones. Journal of Medicinal Chemistry 35:1818-1828 (1992)]. Healing of the segmental defects was assessed after 3 weeks of healing by radiographs (FIG. 16).

[3] = tested on: 5-lipoxygenase or LTA4 hydrolase activity measured by the level of LTB4 in platelet-rich plasma; experiment: Ex vivo treatment of platelet-rich plasma, leukotriene B4 levels by enzyme-linked immune-assay; format: cell-based, rat; conditions: FIG. 9; 1 ug/ml; activated with thrombin and calcium chloride
Source text: Platelet-rich plasma is used clinically to augment fracture healing and other osteogenic processes [Wrotniak et al. Current opinion about using the platelet-rich gel in orthopaedics and trauma surgery. […] Platelet-rich plasma is enriched with platelets and white blood cells from whole blood by centrifugal separation. White blood cells, such as, macrophages, monocytes, and neutrophils, are a major source of 5-lipoxygenase activity [Woods et al. 5-lipoxygenase and 5-lipoxygenase-activating protein are localized in the nuclear envelope of activated human leukocytes.
Male Sprague-Dawley rats (450-500 g body weight) were used. Platelet-rich plasma was prepared as described previously using differential centrifugation [Gandhi et al. The effects of local platelet rich plasma delivery on diabetic fracture healing. […] Five minutes after drug treatment, the treated platelet-rich plasma was activated by addition of thrombin (100 units/ml) and calcium chloride (10 mg/ml) followed by incubation for 15 minutes at 37° C. The reaction was stopped and the platelet-rich plasma was separated by high-speed centrifugation (14,000 RPM). The supernatant was collected and assayed for leukotriene B4 levels using a commercial enzyme-linked immune-assay from Cayman Chemicals, Ann Arbor, Mich.

[4] = tested on: critical-size (8 mm) femur segmental defect; experiment: Critical-size femur segmental defect repaired with scaffold laden with ex vivo treated bone marrow; format: in vivo, Sprague-Dawley rats; conditions: for mineralized tissue in the femur segmental defect on radiographs: 2 weeks after implantation, marrow treated ex vivo, versus vehicle-bone marrow scaffold control; for bone remodeling at the fracture site compared to control rats: FIG. 10, bone marrow aspirate treated ex vivo prior to administration
Procedure: Critical-size (8 mm) segmental defects were made in the right femur of 450-500 g male Sprague-Dawley rats. The defects were repaired as described by Rai et al. [Combination of platelet-rich plasma with polycaprolactone-tricalcium phosphate scaffolds for segmental defect repair. Journal of Biomedical Materials Research 81A:888-899 (2007)] except the polycaprolactone-tricalcium phosphate scaffolds were filled with autologous bone marrow that was treated ex vivo as described below rather than with platelet-rich plasma.
Following induction of anesthesia, bone marrow was harvested from the left femur of each rat. A medial peripatellar incision was made to the left femur and the patella was dislocated laterally to provide access to the femoral condyles. Using an 18 gauge needle, a hole was drilled into the femoral canal and the bone marrow collected into the bore of the 18 gauge needle. The marrow was forced from the syringe needle into a small test tube using 100 μl of saline containing 20 units of heparin. The harvested marrow was then treated with the dimethyl sulfoxide (DMSO) or AA-861 (1 μl of 100 mg/ml in DMSO) which is a 5-LO inhibitor. After 5 minutes, 20 μl of a thrombin and CaCl2 solution (1,000 units thrombin per ml in 10% CaCl2) was added to each marrow sample. Each marrow sample was gently mixed and applied to a polycaprolactone-tricalcium phosphate scaffold that was set upright in a 0.2 ml tube. Each marrow-laden scaffold was incubated at room temperature for 10 minutes to allow clotting to occur and was then inserted into the femoral defects.
Critical-size femoral defects were made in male Sprague-Dawley rats as described above in EXAMPLE 7. The defects were treated with bone marrow laden scaffolds as described above. […] Journal of Medicinal Chemistry 43:721-735 (2000)] (FIG. 10C), or with (c) LY-255283 (5 μl of a 1 mg/ml solution in DMSO) which is a leukotriene B4 receptor antagonist [Herron et al. Leukotriene B4 receptor antagonists: the LY255283 series of hydroxyacetophenones. Journal of Medicinal Chemistry 35:1818-1828 (1992)] (FIG. 10D).

[5] = tested on: primary rat calvaria (osteoblast) cultures; conditions: in vitro; cited from earlier work
G292 cells = conditions: in vitro; LTB4 at higher concentration (0.3-1 micromolar); cited from earlier work

Compound: 5-hydroxyeicosatetraenoic acid [5-HETE]
- BMP2 induced increase in mouse calvaria thickness (mouse calvaria): prevented
- alkaline phosphatase activity [1]: reduce
- bone nodule formation [1]: reduce

Compound: CC1=C(C)C(=O)C(CCCCC#CCCCC#CCO)=C(C)C1=O [AA-861, 2-(12-hydroxydodeca-5,10-diynyl)-3,5,6-trimethyl-1,4-benzoquinone]
- fracture bridging / healing on radiographs (closed femur fracture): fractures healing faster
- greater peak torque than vehicle treated rats (closed femur fracture): 53%
- mode of femur failure in torsional mechanical testing (closed femur fracture): failed as boney unions
- Saos-2 cell proliferation (Saos-2 cells): no effect
- bone formation in the segmental defect region on radiographs compared to scaffold-only group [2]: significantly more bone formation
- activity of 5-lipoxygenase or LTA4 hydrolase, measured by the level of the LTB4 metabolite, in platelet-rich plasma [3]: significantly reduces
- mineralized tissue in the femur segmental defect on radiographs [4]: more extensive mineralized tissue
- bone remodeling at the fracture site compared to control rats [4]: more extensive bone remodeling

Compound: CCCCC/C=C\C[C@@H](O)/C=C/C=C/C=C\[C@@H](O)CCCC(=O)O [LTB4, leukotriene B4]
- BMP2 induced increase in mouse calvaria thickness (mouse calvaria): prevented
- Saos-2 cell proliferation (Saos-2 cells): promote proliferation
- proliferation of primary rat calvaria (osteoblast) cultures [5]: reduces proliferation
- G292 cell proliferation (G292 cells): promote proliferation
- alkaline phosphatase activity [1]: reduce
- bone nodule formation [1]: reduce

Compound: CCCCC/C=C\C\C=C/C=C/C=C/[C@@H](SC[C@H](NC(=O)CC[C@H](N)C(=O)O)C(=O)NCC(=O)O)[C@@H](O)CCCC(=O)O [LTC4, leukotriene C4]
- Saos-2 cell proliferation (Saos-2 cells): no effect
- proliferation of primary rat calvaria (osteoblast) cultures [5]: no effect
- G292 cell proliferation (G292 cells): promote proliferation

Compound: CCCCC/C=C\C\C=C/C=C/C=C/[C@@H](SC[C@H](N)C(=O)NCC(=O)O)[C@@H](O)CCCC(=O)O [LTD4, leukotriene D4]
- alkaline phosphatase activity [1]: no effect
- bone nodule formation [1]: no effect

Compound: CCc1cc(C(C)=O)c(O)cc1OCCCCCC(C)(C)c1nnn[nH]1 [LY-255283, 1-(5-ethyl-2-hydroxy-4-(6-methyl-6-(1H-tetrazol-5-yl)-heptyloxy)phenyl)ethanone]
- bone formation in the segmental defect region on radiographs compared to scaffold-only group [2]: significantly more bone formation
- mineralized tissue in the femur segmental defect on radiographs [4]: some evident mineralized tissue
- bone remodeling at the fracture site compared to control rats [4]: more extensive bone remodeling

Compound: CC(C)c1ccc2c(c1)c(SC(C)(C)C)c(CC(C)(C)C(=O)O)n2Cc1ccc(Cl)cc1 [MK-886, 3-[1-(4-chlorobenzyl)-3-t-butyl-thio-5-isopropylindol-2-yl]-2,2-dimethylpropanoic acid]
- bone formation in the segmental defect region on radiographs compared to scaffold-only group [2]: significantly more bone formation
- activity of 5-lipoxygenase or LTA4 hydrolase, measured by the level of the LTB4 metabolite, in platelet-rich plasma [3]: significantly reduces

Compound: CC(Cc1ccc(O)c(O)c1)C(C)Cc1ccc(O)c(O)c1 (centres unmarked) [NDGA, nordihydroguaiaretic acid]
- fracture bridging / healing on radiographs (closed femur fracture): fractures healing faster
- greater peak torque than vehicle treated rats (closed femur fracture): 22%
- mode of femur failure in torsional mechanical testing (closed femur fracture): failed as boney unions

Compound: c1ccc(-c2ccc(OCCN3CCCC3)cc2)cc1 [SC-22716, 1-[2-(4-Phenylphenoxy)ethyl]pyrrolidine]
- bone formation in the segmental defect region on radiographs compared to scaffold-only group [2]: significantly more bone formation
- mineralized tissue in the femur segmental defect on radiographs [4]: more extensive mineralized tissue
- bone remodeling at the fracture site compared to control rats [4]: more extensive bone remodeling

Compound: CC(c1cc2ccccc2s1)N(O)C(N)=O (centres unmarked) [zileuton, N-(1-benzo[b]thien-2-ylethyl)-N-hydroxyurea]
- activity of 5-lipoxygenase or LTA4 hydrolase, measured by the level of the LTB4 metabolite, in platelet-rich plasma [3]: significantly reduces
- bone remodeling at the fracture site compared to control rats [4]: more extensive bone remodeling

Reference: patent publication US20110105959A1, “Novel Methods for Bone Treatment by Modulating an Arachidonic Acid Metabolic or Signaling Pathway” (ACCELALOX, INC., priority 2008, published 2011)
